Consider 9 molecules from patent US20240246931A1, “COMPOUNDS AS PD1/PD-L1 INHIBITORS AND METHODS THEREOF” (JUBILANT PRODEL LLC, priority 2021, published 2024).

Data set [1] in a line: Metabolic stability in mouse liver microsomes. The format is in vitro ADME. The note with it: mouse liver microsomes 1.0 mg/mL, compound 1 μM, NADPH, second number of HLM/MLM cell. The text has this: (§1) Metabolic Stability in Liver Microsomes
(§2) The purpose of this experiment is to measure the metabolic half-life of NCEs in sub-cellular fractions such as human liver microsomes (HLM) or mouse liver microsomes (MLM). This provides an in vitro means to calculate intrinsic hepatic clearance, and to support the prediction of human pharmacokinetics. This approach has been successfully utilized at early phase of drug discovery projects, to provide SAR input for reducing metabolic instability and for predicting in vivo hepatic clearance.
(§3) Procedure: Potassium phosphate buffer (66.7 mM, pH 7.4) containing liver microsomes (mouse and human) (1.0 mg/mL) was pre-incubated separately with compound (1 μM) and positive control (verapamil, 1 μM) in a 37° C. water bath for 5 min. The reactions were initiated by adding 20 μL of 10 mM NADPH. Reactions without NADPH (0 and 30 min) were also incubated to rule out non-NADPH metabolism or chemical instability in the incubation buffer. All reactions were terminated using 200 μL of ice-cold acetonitrile containing internal standard at 0, 5, 15 and 30 min. The vials were centrifuged at 3000 rpm for 15 min. The supernatants thus obtained were analyzed on LC-MS/MS to monitor the disappearance of test compound.
(Liver microsomes are vesicles of endoplasmic reticulum, rich in cytochrome P450 enzymes.)

A further data set has as its target T1, PD-1/PD-L1 interaction (Homo sapiens, UniProt Q9NZQ7).
T1 construct: purchased CisBio 63ADK000CPAPEG
Kind of data set: PD-1/PD-L1 HTRF binding assay (CisBio kit). As to conditions: HTRF PD1/PD-L1 inhibition assay. Here is the method:
PD-L1 Enzyme Assay: Homogenous Time-Resolved Fluorescence (HTRF) Binding Assay
All binding studies were performed using PD-1/PD-L1 Binding Assay Kit from CisBio (Catalog #63ADK000CPAPEG), according to the manufacturer's protocol. The interaction between Tag1-PD-1 and […] was detected by anti-Tag1-Eu^3+ (HTRF donor) and anti-Tag2-XL665 (HTRF acceptor). When the donor and acceptor antibodies were brought to close proximity due to PD-1 and PD-L1 binding, excitation of the donor antibody triggered fluorescent resonance energy transfer (FRET) towards the acceptor antibody, which in turn emitted specifically at 665 nm. This specific signal is positively proportional to PD-1/PD-L1 interaction. The compounds blocking PD-1/PD-L1 interaction will cause a reduction in HTRF signal. The necessary reagents were mixed in the following order: 2 μL compounds (or diluents buffer), 4 μL PD-L1 protein, 4 μL PD-1 protein. After an incubation of 15 minutes, 5 μL of anti-Tag1-Eu^3+ and 5 μL of anti-Tag2-XL665 were added. The plate was sealed and incubated at room temperature for 1 h. The fluorescence emission was read at two different wavelengths (665 nm and 620 nm) on a BMG PheraStar® multi-plate reader.
Results were calculated from the 665 nm and 620 nm fluorescence signal and expressed in HTRF ratio=(665 nm/620 nm)×10^4.
Compounds having IC50<100 nM are designated as “A”; 100-500 nM are designated as “B”; and >500 nM are designated as “C” respectively.
For orientation: TR-FRET usually uses a lanthanide donor and a delayed reading to cut background.

A short description of data set [2]: Metabolic stability in human liver microsomes. The format is in vitro ADME. As to conditions: human liver microsomes 1.0 mg/mL, compound 1 μM, NADPH, first number of HLM/MLM cell.
Description: as §1, §2, §3

SMILES strings stand for the structures.

T1 sequence (Q9NZQ7 19-238 limits assumed): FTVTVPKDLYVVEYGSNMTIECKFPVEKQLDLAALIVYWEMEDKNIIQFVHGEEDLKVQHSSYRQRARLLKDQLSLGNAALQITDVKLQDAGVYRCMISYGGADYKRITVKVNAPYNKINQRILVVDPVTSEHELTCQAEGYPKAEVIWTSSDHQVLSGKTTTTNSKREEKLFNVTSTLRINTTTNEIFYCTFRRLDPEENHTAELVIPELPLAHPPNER

The IC50 is the concentration at which inhibition is half-maximal. Higher therefore signals a need for much substance. Turning to `N#Cc1c(COc2cc(OCCF)c(CN3CCCC[C@H]3CO)c3c2CCC3)cccc1-c1ccccc1` [Example 29, (S)-3-(((6-(2-fluoroethoxy)-7-((2-(hydroxymethyl)piperidin-1-yl)methyl)-2,3-dihydro-1H-inden-4-yl)oxy)methyl)-[1,1′-biphenyl]-2-carbonitrile], in data set [1], the “MLM % remaining @ 30 min” value is 71%. Further, the IC50 on PD-1/PD-L1 interaction is < 100 nM. Further, the “HLM % remaining @ 30 min” value in data set [2] came to 56%.

With `Cc1c(COc2cc(OCc3cccc(C#N)c3)c(CN3CCC[C@H]3CO)c3c2CCC3)cccc1-c1ccccc1` [Example 7, (S)-3-(((4-((2-(hydroxymethyl)pyrrolidin-1-yl)methyl)-7-((2-methyl-[1,1′-biphenyl]-3-yl)methoxy)-2,3-dihydro-1H-inden-5-yl)oxy)methyl)benzonitrile], the “MLM % remaining @ 30 min” value in data set [1] is on record as 76%. At PD-1/PD-L1 interaction, the half-maximal inhibitory concentration (IC50) was < 100 nM. Moreover, the “HLM % remaining @ 30 min” value in data set [2] is reported as 66%.

Consider `N#Cc1cccc(COc2cc(OCc3cccc(-c4ccccc4)c3C#N)c3c(c2CN2CCC[C@H]2CO)CCC3)c1` [Example 4, (S)-3-(((6-((3-cyanobenzyl)oxy)-7-((2-(hydroxymethyl)pyrrolidin-1-yl)methyl)-2,3-dihydro-1H-inden-4-yl)oxy)methyl)-[1,1′-biphenyl]-2-carbonitrile], for which, in data set [1], the “MLM % remaining @ 30 min” value was 20/20%. Moreover, on PD-1/PD-L1 interaction, the IC50 is < 100 nM. In addition, the “HLM % remaining @ 30 min” value in data set [2] was 20/20%.

As to `Cc1c(COc2cc(OCc3cncnc3)c(CN3CCC3CO)c3c2CCC3)cccc1-c1ccccc1` (stereo not drawn) [Example 42, (1-((7-((2-methyl-[1,1′-biphenyl]-3-yl)methoxy)-5-(pyrimidin-5-ylmethoxy)-2,3-dihydro-1H-inden-4-yl)methyl)azetidin-2-yl)methanol], the IC50 at PD-1/PD-L1 interaction is < 100 nM.

On PD-1/PD-L1 interaction, `Cc1c(COc2cc(OCc3cocn3)c(CN3CCC3CO)c3c2CCC3)cccc1-c1ccccc1` (stereo not drawn) [Example 43, (1-((7-((2-methyl-[1,1′-biphenyl]-3-yl)methoxy)-5-(oxazol-4-ylmethoxy)-2,3-dihydro-1H-inden-4-yl)methyl)azetidin-2-yl)methanol] displayed a concentration for half-maximal inhibition (IC50) of 100 to 500 nM.

Consider `Cc1c(COc2cc(OCc3cncc(C#N)c3)c(CN3CCC(CO)CC3)c3c2CCC3)cccc1-c1ccccc1` [Example 17, 5-(((4-((4-(hydroxymethyl)piperidin-1-yl)methyl)-7-((2-methyl-[1,1′-biphenyl]-3-yl)methoxy)-2,3-dihydro-1H-inden-5-yl)oxy)methyl)nicotinonitrile], for which, on PD-1/PD-L1 interaction, the IC50 was < 100 nM.

For the molecule `Cc1c(COc2cc(OCc3cncc(C#N)c3)c(CN3CC4(CC4)C[C@H]3CO)c3c2CCC3)cccc1-c1ccc(F)cc1` [Example 47, (S)-5-(((7-((4′-fluoro-2-methyl-[1,1′-biphenyl]-3-yl)methoxy)-4-((6-(hydroxymethyl)-5-azaspiro[2.4]heptan-5-yl)methyl)-2,3-dihydro-1H-inden-5-yl)oxy)methyl)nicotinonitrile], the IC50 on PD-1/PD-L1 interaction was in the range of 100 to 500 nM.

The molecule `Cc1ccc(F)c(-c2cccc(COc3cc(OCc4cncc(C#N)c4)c(CN4CCC4CO)c4c3CCC4)c2C)c1` (stereo not drawn) [Example 56, 5-(((7-((2′-fluoro-2,5′-dimethyl-[1,1′-biphenyl]-3-yl)methoxy)-4-((2-(hydroxymethyl)azetidin-1-yl)methyl)-2,3-dihydro-1H-inden-5-yl)oxy)methyl)nicotinonitrile] came in with an IC50 at PD-1/PD-L1 interaction of 100 to 500 nM.

With `Cc1c(COc2cc(OCc3cncc(C#N)c3)c(C(=O)NC3CCN(C)CC3)c3c2CCC3)cccc1-c1ccccc1` [Example 49, 5-((5-cyanopyridin-3-yl)methoxy)-7-((2-methyl-[1,1′-biphenyl]-3-yl)methoxy)-N-(1-methylpiperidin-4-yl)-2,3-dihydro-1H-indene-4-carboxamide], the IC50 at PD-1/PD-L1 interaction was < 100 nM.
